Assay results published in US20230085307A1, “PYRIDAZINONE COMPOUND AND HERBICIDE” (NISSAN CHEMICAL CORPORATION, priority 2019, published 2023).

Tests used:
[1] = system: barnyard grass; experiment: Test Example 3: herbicidal effect by foliage application, Wagner pot (Table 18, symbol H); format: in vivo, barnyard grass (Echinochloa crus-galli)
Summary of the method: (§1)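 Plants were sown in alluvial soil held under 0.1–0.5 cm standing water and grown 14 days in a greenhouse at 25–30 °C. An emulsifiable formulation, water-diluted to the set dose, was then sprayed onto the foliage, and effects were scored three weeks later using previously defined criteria.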

[2] = system: rice flat sedge; experiment: Test Example 3: herbicidal effect by foliage application, Wagner pot (Table 18, symbol E); format: in vivo, rice flat sedge (Cyperus iria)
Summary of the method: as §1

[3] = system: velvetleaf; experiment: Test Example 5: herbicidal effect by foliage application, plastic box (Table 20, symbol M); format: in vivo, velvetleaf (Abutilon theophrasti); details: foliage application
Summary of the method: (§2)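 Foliar spray test: emulsion formulation diluted in water to a set application rate, sprayed onto 14-day-old plants raised in diluvial soil at 25° C to 30° C under glass. Both herbicidal effect and crop effect rated visually three weeks later.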

[4] = system: windgrass; experiment: Test Example 4: herbicidal effect by soil treatment (Table 19, symbol L); format: in vivo, windgrass (Apera spica-venti); details: amount of applied herbicide 320 g/ha
Summary of the method: (§3)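 Herbicidal effect was rated 3 weeks after treatment, using the scoring criteria of an earlier test. The compound, formulated as an emulsion and diluted in water to a set herbicide amount, had been sprayed uniformly on soil over freshly sown seeds. Growth took place in a greenhouse at 25° C. to 30° C.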

[5] = system: blackgrass; experiment: Test Example 5: herbicidal effect by foliage application, plastic box (Table 20, symbol J); format: in vivo, blackgrass (Alopecurus myosuroides); details: foliage application
Summary of the method: as §2

[6] = system: Japanese bulrush; experiment: Test Example 1: herbicidal activity, application before weed generation under submerged conditions (Table 16, symbol B); format: in vivo, Japanese bulrush (Schoenoplectus juncoides)
Summary of the method: (§4)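 Emulsion formulation, water-diluted to set dose, was put onto the flooded surface (4 cm depth, alluvial soil) the same day weeds were sown and 2.5-leaf rice transplanted. After 3 weeks at 25-30 °C under glass, each species was rated 0 (≤5% kill) to 5 (≥90% kill).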

[7] = system: barnyard grass; experiment: Test Example 5: herbicidal effect by foliage application, plastic box (Table 20, symbol H); format: in vivo, barnyard grass (Echinochloa crus-galli); details: foliage application
Summary of the method: as §2

[8] = system: green foxtail; experiment: Test Example 5: herbicidal effect by foliage application, plastic box (Table 20, symbol G); format: in vivo, green foxtail (Setaria viridis); details: foliage application
Summary of the method: as §2

[9] = system: windgrass; experiment: Test Example 5: herbicidal effect by foliage application, plastic box (Table 20, symbol L); format: in vivo, windgrass (Apera spica-venti); details: foliage application
Summary of the method: as §2

[10] = system: wild oat; experiment: Test Example 5: herbicidal effect by foliage application, plastic box (Table 20, symbol I); format: in vivo, wild oat (Avena fatua); details: foliage application
Summary of the method: as §2

[11] = system: green foxtail; experiment: Test Example 4: herbicidal effect by soil treatment (Table 19, symbol G); format: in vivo, green foxtail (Setaria viridis); details: amount of applied herbicide 320 g/ha
Summary of the method: as §3

[12] = system: persian speedwell; experiment: Test Example 4: herbicidal effect by soil treatment (Table 19, symbol R); format: in vivo, Persian speedwell (Veronica persica)
Summary of the method: as §3

[13] = system: velvetleaf; experiment: Test Example 4: herbicidal effect by soil treatment (Table 19, symbol M); format: in vivo, velvetleaf (Abutilon theophrasti)
Summary of the method: as §3

[14] = system: Italian ryegrass; experiment: Test Example 4: herbicidal effect by soil treatment (Table 19, symbol K); format: in vivo, Italian ryegrass (Lolium multiflorum)
Summary of the method: as §3

[15] = system: southern crabgrass; experiment: Test Example 5: herbicidal effect by foliage application, plastic box (Table 20, symbol F); format: in vivo, southern crabgrass (Digitaria ciliaris); details: foliage application
Summary of the method: as §2

[16] = system: southern crabgrass; experiment: Test Example 4: herbicidal effect by soil treatment (Table 19, symbol F); format: in vivo, southern crabgrass (Digitaria ciliaris)
Summary of the method: as §3

[17] = system: late watergrass; experiment: Test Example 1: herbicidal activity, application before weed generation under submerged conditions (Table 16, symbol A); format: in vivo, late watergrass (Echinochloa oryzicola)
Summary of the method: as §4

[18] = system: redroot pigweed; experiment: Test Example 5: herbicidal effect by foliage application, plastic box (Table 20, symbol N); format: in vivo, redroot pigweed (Amaranthus retroflexus); details: foliage application
Summary of the method: as §2

[19] = amount of applied herbicide 320 g/ha
[20] = 320 g/ha, three weeks after application
[21] = 320 g/ha, evaluated 3 weeks after application
[22] = 296 g/ha, three weeks after application
[23] = amount of applied herbicide 296 g/ha

## CCOc1ccccc1-c1sc2ccc(F)cc2c1-c1c(O)c(CC)nn(C)c1=O [2-416]
[1]; [19]
  herbicidal effect on H: barnyard grass: 5 (Herbicidal rate of 90% or more (almost completely withered))
[2]; [19]
  herbicidal effect on E: rice flat sedge: 4 (Herbicidal rate of 70% or more and less than 90%)
[3]; [20]
  M: velvetleaf, herbicidal effect grade: 3 (Herbicidal rate of 40% or more and less than 70%)
[4]
  herbicidal effect, L: windgrass: 0 (Herbicidal rate of 5% or less (almost no effect))
[5]; [20]
  J: blackgrass, herbicidal effect grade: 0 (Herbicidal rate of 5% or less (almost no effect))
[6]; [19]
  Herbicidal effect, B: Japanese bulrush: 3 (Herbicidal rate of 40% or more and less than 70%)
[7]; [20]
  H: barnyard grass, herbicidal effect grade: 3 (Herbicidal rate of 40% or more and less than 70%)
[8]; [20]
  G: green foxtail, herbicidal effect grade: 2 (Herbicidal rate of 20% or more and less than 40%)
[9]; [20]
  L: windgrass, herbicidal effect grade: 0 (Herbicidal rate of 5% or less (almost no effect))
[10]; [20]
  I: wild oat, herbicidal effect grade: 0 (Herbicidal rate of 5% or less (almost no effect))
[11]
  herbicidal effect, G: green foxtail: 0 (Herbicidal rate of 5% or less (almost no effect))
[12]; [19]
  herbicidal effect, R: persian speedwell: 0 (Herbicidal rate of 5% or less (almost no effect))
[13]; [19]
  herbicidal effect, M: velvetleaf: 0 (Herbicidal rate of 5% or less (almost no effect))
[14]; [19]
  herbicidal effect, K: Italian ryegrass: 0 (Herbicidal rate of 5% or less (almost no effect))
[15]; [20]
  F: southern crabgrass, herbicidal effect grade: 1 (Herbicidal rate of 5% or more and less than 20%)
[16]; [19]
  herbicidal effect, F: southern crabgrass: 0 (Herbicidal rate of 5% or less (almost no effect))
[17]; [19]
  Herbicidal effect, A: late watergrass: 3 (Herbicidal rate of 40% or more and less than 70%)

## CCCC(=O)Oc1c(C)nn(C)c(=O)c1-c1c(-c2ccc(F)cc2)sc2cc(C)c(C)cc12 [5-089]
[1]; 320 g/ha
  herbicidal effect on barnyard grass (H): 1 (Herbicidal rate of 5% or more and less than 20%)
[2]; 320 g/ha
  herbicidal effect on rice flat sedge (E): 3 (Herbicidal rate of 40% or more and less than 70%)
[3]; [20]
  herbicidal effect on velvetleaf (M): 0 (Herbicidal rate of 5% or less (almost no effect))
[4]
  L: windgrass, herbicidal effect grade: 4 (Herbicidal rate of 70% or more and less than 90%)
[5]; [20]
  herbicidal effect on blackgrass (J): 0 (Herbicidal rate of 5% or less (almost no effect))
[6]; [19]
  Herbicidal effect, B: Japanese bulrush: 0 (Herbicidal rate of 5% or less (almost no effect))
[7]; [20]
  herbicidal effect on barnyard grass (H): 0 (Herbicidal rate of 5% or less (almost no effect))
[8]; [20]
  herbicidal effect on green foxtail (G): 0 (Herbicidal rate of 5% or less (almost no effect))
[9]; [20]
  herbicidal effect on windgrass (L): 0 (Herbicidal rate of 5% or less (almost no effect))
[10]; [20]
  herbicidal effect on wild oat (I): 0 (Herbicidal rate of 5% or less (almost no effect))
[11]
  G: green foxtail, herbicidal effect grade: 0 (Herbicidal rate of 5% or less (almost no effect))
[12]; [19]
  R: persian speedwell, herbicidal effect grade: 0 (Herbicidal rate of 5% or less (almost no effect))
[13]; [19]
  M: velvetleaf, herbicidal effect grade: 0 (Herbicidal rate of 5% or less (almost no effect))
[14]; [19]
  K: Italian ryegrass, herbicidal effect grade: 0 (Herbicidal rate of 5% or less (almost no effect))
[15]; [20]
  herbicidal effect on southern crabgrass (F): 0 (Herbicidal rate of 5% or less (almost no effect))
[16]; [19]
  F: southern crabgrass, herbicidal effect grade: 0 (Herbicidal rate of 5% or less (almost no effect))
[17]; [19]
  Herbicidal effect, A: late watergrass: 3 (Herbicidal rate of 40% or more and less than 70%)

## COCCOc1ccc(-c2oc3ccc(C)cc3c2-c2c(O)c(C)nn(C)c2=O)cc1 [9-063]
[1]; [19]
  Herbicidal effect on H (barnyard grass), foliage application: 5 (Herbicidal rate of 90% or more (almost completely withered))
[2]; [19]
  Herbicidal effect on E (rice flat sedge), foliage application: 4 (Herbicidal rate of 70% or more and less than 90%)
[3]; [21]
  M (velvetleaf) herbicidal effect grade: 5 (Herbicidal rate of 90% or more (almost completely withered))
[5]; [21]
  J (blackgrass) herbicidal effect grade: 5 (Herbicidal rate of 90% or more (almost completely withered))
[6]; [19]
  Herbicidal effect, B: Japanese bulrush: 5 (Herbicidal rate of 90% or more (almost completely withered))
[7]; [21]
  H (barnyard grass) herbicidal effect grade: 5 (Herbicidal rate of 90% or more (almost completely withered))
[8]; [21]
  G (green foxtail) herbicidal effect grade: 5 (Herbicidal rate of 90% or more (almost completely withered))
[9]; [21]
  L (windgrass) herbicidal effect grade: 4 (Herbicidal rate of 70% or more and less than 90%)
[10]; [21]
  I (wild oat) herbicidal effect grade: 1 (Herbicidal rate of 5% or more and less than 20%)
[11]
  G: green foxtail, herbicidal effect grade: 5 (Herbicidal rate of 90% or more (almost completely withered))
[12]; [19]
  R: persian speedwell, herbicidal effect grade: 5 (Herbicidal rate of 90% or more (almost completely withered))
[13]; [19]
  M: velvetleaf, herbicidal effect grade: 5 (Herbicidal rate of 90% or more (almost completely withered))
[14]; [19]
  K: Italian ryegrass, herbicidal effect grade: 5 (Herbicidal rate of 90% or more (almost completely withered))
[15]; [21]
  F (southern crabgrass) herbicidal effect grade: 5 (Herbicidal rate of 90% or more (almost completely withered))
[16]; [19]
  F: southern crabgrass, herbicidal effect grade: 5 (Herbicidal rate of 90% or more (almost completely withered))
[18]; [21]
  N (redroot pigweed) herbicidal effect grade: 5 (Herbicidal rate of 90% or more (almost completely withered))
[17]; [19]
  Herbicidal effect, A: late watergrass: 5 (Herbicidal rate of 90% or more (almost completely withered))

## CCCC(=O)Oc1c(C)nn(C)c(=O)c1-c1c(-c2ccccc2OC)sc2cc(OC)ccc12 [Compound No. 3-066, 5-(6-methoxy-2-(2-methoxyphenyl)benzo[b]thiophen-3-yl)-1,3-dimethyl-6-oxo-1,6-dihydropyridazin-4-yl=(n-butyrate)]
[1]; 296 g/ha
  herbicidal effect on barnyard grass (H): 5 (Herbicidal rate of 90% or more (almost completely withered))
[2]; 296 g/ha
  herbicidal effect on rice flat sedge (E): 5 (Herbicidal rate of 90% or more (almost completely withered))
[3]; [22]
  M: velvetleaf, herbicidal effect grade: 4 (Herbicidal rate of 70% or more and less than 90%)
[5]; [22]
  J: blackgrass, herbicidal effect grade: 4 (Herbicidal rate of 70% or more and less than 90%)
[6]; [23]
  Herbicidal effect, B: Japanese bulrush: 5 (Herbicidal rate of 90% or more (almost completely withered))
[7]; [22]
  H: barnyard grass, herbicidal effect grade: 4 (Herbicidal rate of 70% or more and less than 90%)
[8]; [22]
  G: green foxtail, herbicidal effect grade: 4 (Herbicidal rate of 70% or more and less than 90%)
[9]; [22]
  L: windgrass, herbicidal effect grade: 5 (Herbicidal rate of 90% or more (almost completely withered))
[10]; [22]
  I: wild oat, herbicidal effect grade: 3 (Herbicidal rate of 40% or more and less than 70%)
[12]; [23]
  R: persian speedwell, herbicidal effect grade: 3 (Herbicidal rate of 40% or more and less than 70%)
[13]; [23]
  M: velvetleaf, herbicidal effect grade: 0 (Herbicidal rate of 5% or less (almost no effect))
[14]; [23]
  K: Italian ryegrass, herbicidal effect grade: 4 (Herbicidal rate of 70% or more and less than 90%)
[15]; [22]
  F: southern crabgrass, herbicidal effect grade: 4 (Herbicidal rate of 70% or more and less than 90%)
[16]; [23]
  F: southern crabgrass, herbicidal effect grade: 0 (Herbicidal rate of 5% or less (almost no effect))
[18]; [22]
  N: redroot pigweed, herbicidal effect grade: 5 (Herbicidal rate of 90% or more (almost completely withered))
[17]; [23]
  Herbicidal effect, A: late watergrass: 5 (Herbicidal rate of 90% or more (almost completely withered))
